Here are results for one substance from patent US20140199714A1, “METHOD FOR DETECTING CANCER CELLS METASTASIZING INTO SENTINEL LYMPH NODE” (SHINSHU UNIVERSITY, priority 2008, published 2014).

What all share (assay type): cell-based
The subject of one test is VCAM-1 on human LECs. The experiment in a line: Immunohistochemical expression of VCAM-1 on cultured human LECs. The procedure:
Using an indirect immunohistochemical technique, the inventors examined the effects of the supernatants of culture medium of two kinds of carcinoma cells, MDA-MB-231 and MCF-7, on the expression of adhesion molecules such as E-selectin, P-selectin, vascular cell adhesion molecule (VCAM)-1, and intercellular adhesion molecule (ICAM)-1 on the human LECs. The carcinoma cells were plated in DMEM/F12 with 10% FBS, which was replaced the following day with DMEM/F12 with 3% FBS, and then collected after overnight culture. The collected solution was centrifuged at 2,000 rpm for 5 min. at 4° C. To examine the effects of the supernatants on the expression of the adhesion molecules on the human LECs, 1 mL of each collected solution was added to starvation culture medium, EBM-2 with 3% FBS of the human LECs, and then stimulated for 48 hrs. on the cells. In some experiments, the supernatant solutions at different concentrations (1/100 or 1/10,000 dilution) were constructed with appropriate volumes of DMEM/F12 with 3% FBS.
Indirect immunohistochemical studies were performed on the cultured LECs seeded or glass slides coated with type I collagen, and then the cells were fixed with 3.3% formalin in phosphate-buffered saline solution (PBS), for 20 min. at room temperature. The cells were washed three times with PBS, and then incubated overnight at 4° C. with primary polyclonal human antisera to E-selectin/CD62E (dilution 10 μg/mL, available from R&D Systems, US), P-selectin/CD62P (dilution 10 μg/mL, available from R&D Systems, US), VCAM-1/CD106 (dilution 10 μg/mL, available from R&D Systems, US), and ICAM-1/CD54 (dilution 10 μg/mL, available from R&D Systems, US).
Before primary staining, the cultured cells were permeabilized with 0.1% TRITON-X. After washing three times in PBS, the cells were incubated for 1 hr. at room temperature with 1:100 diluted ALEXA FLUOR 488 donkey anti-mouse IgG (available from Invitrogen, US). The nuclei of cultured cells were counter-stained and mounted with PROLONG GOLD antifade reagent with 4′-6-diamidine-2-phenylindole (DAPI) (available from Molecular Probes, US), examined by a fluorescent microscope (Leica, Switzerland), and photographed.
Immunohistochemistry was performed on the cultured human LECs or the fresh-frozen SLNs isolated from the breast cancer patients. In brief, the cultured LECs were fixed with 10% formalin in the phosphate-buffered saline solution (PBS) at room temperature. The cells were incubated for 4 hrs. at room temperature with primary polyclonal human antisera platelet-endothelial cell adhesion molecule (PECAM)-1 (dilution 1:100, available from BD Biosciences, US), lymphatic vessel endothelial hyaluronan receptor (LYVE)-1 (dilution 1:50, available from RELIATech, Germany), PROX-1 (dilution 1:50, available from AngioBio, US), podoplanin (dilution 1:50, available from AngioBio, US), vascular endothelium growth factor receptor 3 (VEGF R3) (dilution 1:50, available from Santa Cruz, US), E-selectin/CD62E (dilution 1:50, available from R&D systems, US), P-selectin/CD62P (dilution 1:50, available from R&D systems, US), vascular cell adhesion molecule (VCAM)-1/CD106 (dilution 1:50, available from R&D systems, US), and intercellular adhesion molecule (ICAM)-1/CD54 (dilution 1:50, available from R&D systems, US). Before the staining, permeabilization of the cultured cells with 0.1% TRITON-X was performed. Then, the cells were stained using the following antibodies: ALEXA FLUOR 488 chicken anti-rabbit IgG or ALEXA FLUOR 488 donkey anti-mouse IgG (available from Invitrogen, US). The nuclei of the cultured cells were counter-stained and mounted with ProLong Gold antifade reagent with 4′-6-diamidine-2-phenylindole (DAPI) (available from Molecular Probes, US). The cultured cells were examined by a fluorescent microscope (available from Leica, Germany) and photographed. […]

Test [1] deals with attachment of MCF-7 carcinoma cells to human LECs. The test is described as follows: In vitro human LECs attachment assay (CCL2), MCF-7. The following applies: 18 hrs.-stimulation of 10 ng/mL CCL2 vs negative control with DMEM/F12; p<0.01. The procedure:
(§1) The human LECs were plated to form a monolayer on type I collagen-coated 35 mm plates and incubated to confluence in 5% O2, 5% CO2, and 90% N2 at 37° C. The LECs were kept in serum-starved medium containing EBM-2 with 3% FBS. Selected plates were treated with 10 ng/mL CCL2 for 18 hrs. In some experiments, the plates were stimulated by the serum-starved medium pretreated with neutralization of 10 ng/mL CCL2 with 1.0 μg/mL CCL2 specific antibody.
(§2) In some experiments, the plates were also treated with anti-human ICAM-1 antibody (available from R&D systems, US) for 30 min. after the 18 hrs. treatment with 10 ng/mL CCL2.
(§3) The two kinds of the breast carcinoma cells such as MDA-MB-231 and MCF-7 stained with PKH26 fluorescent dye (available from SIGMA, US) were then plated at 1×10^5 cells per plate and incubated for 30 min. at 37° C. Unbound cells were removed by aspiration, and the plates were washed with EBM-2 three times. The attachment of the carcinoma cells was quantified by counting the number of cells under ×100 magnification using a Leica microscope.

Test [2] concerns attachment of MDA-MB-231 carcinoma cells to human LECs. The experiment in a line: In vitro human LECs attachment assay (CCL2), MDA-MB-231. The settings on record: 18 hrs.-stimulation of 10 ng/mL CCL2 vs negative control with DMEM/F12; p<0.01. The protocol:
as §1, §2, §3

Test [3] deals with ICAM-1 protein in human LECs. The test is described as follows: Western blot analysis of ICAM-1 protein in human LECs. The following applies: 18 hrs.-stimulation of 10 ng/mL CCL2. The procedure: Western blot analysis was performed to quantitatively evaluate the CCL2-mediated ICAM-1 expression on the cultured human LECs. The cells were dissolved in M-PER (Mammalian Protein Extraction Reagent available from Thermo Fisher Scientific Inc., US) and centrifuged at 14,000 r.p.m. for 10 min. A 15 μg sample of the total cell lysate was resolved in SDS sample buffer for sodium dodecyl sulfate-polyacrylamide gel electrophoresis (SDS-PAGE) and transferred to an polyvinylidene difluoride (PVDF) membrane (available from Atto Corporation, Japan), where it was incubated for 45 min The membrane was probed with the anti-ICAM-1 antiserum (dilution 1:1000, available from Cell Signaling Technology Inc., US) and then incubated with anti-rabbit immunoglobulin G (IgG) horseradish peroxidase conjugated antibody. The same membrane was reprobed with monoclonal anti-actin antibody (available from Santa Cruz Biotechnology Inc., US) and then visualized with an ECL-Western blotting detection system (available from Amersham Bioscience Inc., UK).
On the technique in general: Immunoblotting shows a protein as a band on a membrane.

For a further test, the system named is ICAM-1 on human LECs. The experiment in a line: Immunohistochemical expression of ICAM-1 on cultured human LECs.
The mark [4] stands for this setting: 4 hrs-stimulation of 10 ng/mL CCL2.
The mark [5] stands for this setting: 18 hrs.-stimulation with 10 ng/mL chemokine.

Turning to CCL2: chemokine CCL2, the “expression of VCAM-1 on human LECs” value with VCAM-1 on human LECs (setting [4]) was “no or little expression”; in the test on VCAM-1 on human LECs (setting [5]) it was “Little or no expression”. Moreover, the “in vitro attachment of MCF-7 to human LECs” value in test [1] was “significant increase”. Further, the “in vitro attachment of MDA-MB-231 to human LECs” value in test [2] is “significant increase”. In addition, in test [3], the “expression of ICAM-1 protein” value is given as “significant expression”. The “intensity of the immunoreactivity for ICAM-1” value in the test on ICAM-1 on human LECs (10 ng/mL CCL2, stimulation time of 18 hrs. only) is “significantly increased”. In addition, the “contrast-density of ICAM-1 staining (mean density/pixel)” value in the test with ICAM-1 on human LECs (10 ng/mL CCL2 vs negative control, p<0.01, n=5) is “increases significantly”. Further, the “expression of ICAM-1 on human LECs” value in the test on ICAM-1 on human LECs (setting [4]) was “marked expression”; with ICAM-1 on human LECs (setting [5]), “marked expression”; in the test on ICAM-1 on human LECs (18 hrs.-stimulation, 10 pg/mL CCL2), “slight, but significant, expression”; in the test on ICAM-1 on human LECs (18 hrs.-stimulation, 1 ng/mL or 10 ng/mL of CCL2) it was “marked expression”.
